pKi: −log10 of the molar value.
Biological target: D(2) dopamine receptor (Rattus norvegicus, UniProt P61169)
Assay: Compound was tested for inhibitory activity against the binding of [3H]spiperone to Dopamine receptor D2 in rat striatal membranes
Format: cell membranes, Membrane

D(2) dopamine receptor, sequence (P61169 whole entry): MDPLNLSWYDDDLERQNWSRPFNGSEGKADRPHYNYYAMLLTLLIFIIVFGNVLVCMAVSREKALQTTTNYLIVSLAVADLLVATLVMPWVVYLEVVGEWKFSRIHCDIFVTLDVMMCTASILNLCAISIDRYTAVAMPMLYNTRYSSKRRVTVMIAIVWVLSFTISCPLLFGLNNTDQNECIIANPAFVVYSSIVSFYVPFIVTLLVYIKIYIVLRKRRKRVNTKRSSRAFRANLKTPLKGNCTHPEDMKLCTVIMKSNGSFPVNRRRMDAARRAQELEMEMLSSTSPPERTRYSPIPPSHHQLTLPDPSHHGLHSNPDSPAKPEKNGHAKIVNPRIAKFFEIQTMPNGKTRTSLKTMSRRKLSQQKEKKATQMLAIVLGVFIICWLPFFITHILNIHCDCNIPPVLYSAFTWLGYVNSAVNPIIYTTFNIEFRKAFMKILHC

| SMILES | pKi |
| --- | --- |
| C[N+](C)(C)CCCN1c2ccccc2Sc2ccc(Cl)cc21 | 5.67 |
| C[S+](C)CCCN1c2ccccc2Sc2ccc(Cl)cc21 | 6.55 |

Source: ChEMBL document CHEMBL1123935 (J Med Chem, 1987)
